Measured values published in ChEMBL document CHEMBL1129258, “Synthesis and structure-activity relationships of 2-pyridones: a novel series of potent DNA gyrase inhibitors as antibacterial agents” (J Med Chem, 1996).
Converted amounts (≈) assume the structure as drawn.

Assays:
[1] = target: T1, DNA gyrase (Escherichia coli) (UniProt P0AES6+P0AES4); test: In vivo efficacy against Escherichia coli JUHL after oral administration; type: functional, organism-based; settings: Escherichia coli K-12
[2] = target: T1, DNA gyrase (Escherichia coli); test: In vivo efficacy against Escherichia coli JUHL by subcutaneous administration; type: functional, organism-based; settings: Escherichia coli K-12
[3] = target: T1, DNA gyrase (Escherichia coli); test: In vitro antibacterial activity against gram-negative organism […] ATCC 13048; type: functional; settings: Enterobacter aerogenes
[4] = target: T1, DNA gyrase (Escherichia coli); test: In vitro antibacterial against gram-negative organism Escherichia coli JUHL; type: functional; settings: Escherichia coli K-12
[5] = target: T1, DNA gyrase (Escherichia coli); test: In vitro antibacterial activity against gram-negative organism Klebsiella pneumoniae ATCC 8045; type: functional
[6] = In vivo efficacy against Pseudomonas aeruginosa 5007 after subcutaneous administration; type: functional; settings: Pseudomonas aeruginosa, sc; read-out: ED50
[7] = target: T1, DNA gyrase (Escherichia coli); test: In vitro antibacterial activity against gram-negative organism Prov. stuartii CMX-640; type: functional; settings: Providencia stuartii
[8] = In vitro antibacterial activity against gram-negative organism Pseudomonas aeruginosa 5007; type: functional
[9] = In vitro antibacterial activity against gram-negative organism Pseudomonas aeruginosa DPHD-2862; type: functional; settings: Pseudomonas aeruginosa; read-out: MIC
[10] = target: T2, DNA gyrase (Staphylococcus aureus) (UniProt P0A0K8+P20831); test: In vitro antibacterial activity against gram-positive organism Staphylococcus aureus 1775; type: functional
[11] = target: T2, DNA gyrase (Staphylococcus aureus); test: In vitro antibacterial activity against gram-positive organism Staphylococcus aureus ATCC 6538p; type: functional
[12] = target: T2, DNA gyrase (Staphylococcus aureus); test: In vitro antibacterial activity against gram-positive organism Staphylococcus aureus NCTC-10649M; type: functional
[13] = target: T1, DNA gyrase (Escherichia coli); test: In vitro antibacterial activity against gram-positive organism Streptococcus bovis A-5169; type: functional; settings: Streptococcus equinus
[14] = target: T2, DNA gyrase (Staphylococcus aureus); test: In vivo efficacy against Staphylococcus aureus NCTC-10649M after oral administration; type: functional, organism-based
[15] = target: T2, DNA gyrase (Staphylococcus aureus); test: In vivo efficacy against Staphylococcus aureus NCTC-10649M after subcutaneous administration; type: functional, organism-based
[16] = target: T1, DNA gyrase (Escherichia coli); test: In vitro antibacterial activity against gram-positive organism Enterococcus faecium ATCC 8043; type: functional
[17] = system: Pseudomonas aeruginosa; test: In vivo efficacy against Pseudomonas aeruginosa 5007 following p.o. administration.
[18] = system: Streptococcus pyogenes; test: In vitro antibacterial activity against gram-positive organism Streptococcus pyogenes EES61; type: functional; settings: Streptococcus pyogenes; read-out: MIC
[19] = system: Streptococcus pneumoniae; test: In vivo efficacy against Strep. administration; type: functional
[20] = target: T1, DNA gyrase (Escherichia coli); settings: Escherichia coli K-12
Description: Concentration which causes 50% of the gyrase (Escherichia coli H560)-mediated maximal DNA cleavage.

[21] = system: Enterococcus faecalis; test: Inhibitory activity against enterococcus faecalis Van B; type: functional
[22] = system: Enterococcus faecium; test: Inhibitory activity against enterococcus faecium Van A; type: functional
[23] = Pseudomonas aeruginosa, read-out: MIC

Structure (SMILES)	ED50 [1] [mg/kg]	ED50 [2] [mg/kg]	MIC [3] [µg/mL]	MIC [4] [µg/mL]	MIC [5] [µg/mL]	MIC [7] [µg/mL]	MIC [8, 23] [µg/mL]	MIC [9] [µg/mL]	MIC [10] [µg/mL]	MIC [11] [µg/mL]	MIC [12] [µg/mL]	MIC [13] [µg/mL]	ED50 [14] [mg/kg]	ED50 [15] [mg/kg]	MIC [16] [µg/mL]	MIC [18] [µg/mL]	CC50 [20] [µg/mL]	also measured
Cc1c(N2C[C@H]3CCN[C@H]3C2)c(F)cn2c(=O)c(C(=O)O)cc(C3CC3)c12 (single isomer, unassigned)	1.1	0.5	0.05 (≈ 0.135 µM)	0.05 (≈ 0.135 µM)	0.02 (≈ 0.0538 µM)	0.39 (≈ 1.05 µM)	0.39 (≈ 1.05 µM)	6.2 (≈ 16.7 µM)	6.2 (≈ 16.7 µM)	0.05 (≈ 0.135 µM)	0.1 (≈ 0.269 µM)	0.39 (≈ 1.05 µM)	1.5	0.6	0.2 (≈ 0.538 µM)			ED50 [6]: 5 mg/kg; ED50 [17]: 17.9 mg/kg
Cc1c(N2C[C@@H]3CCN[C@@H]3C2)c(F)cn2c(=O)c(C(=O)O)cc(C3CC3)c12 (stereo in doubt; (S,S)45o)	> 10	0.8	0.05 (≈ 0.135 µM)	0.02 (≈ 0.0538 µM)	0.01 (≈ 0.0269 µM)	0.39 (≈ 1.05 µM)			3.1 (≈ 8.35 µM)	0.05 (≈ 0.135 µM)	0.05 (≈ 0.135 µM)	0.1 (≈ 0.269 µM)	5	1.5	0.1 (≈ 0.269 µM)			
Cc1c(N2C[C@H]3CCC[C@H](N)[C@H]3C2)c(F)cn2c(=O)c(C(=O)O)cc(C3CC3)c12			0.1 (≈ 0.25 µM)	0.02 (≈ 0.0501 µM)	0.02 (≈ 0.0501 µM)	0.78 (≈ 1.95 µM)		6.2 (≈ 15.5 µM)	0.39 (≈ 0.976 µM)	0.005 (≈ 0.0125 µM)	0.005 (≈ 0.0125 µM)	0.01 (≈ 0.025 µM)			0.02 (≈ 0.0501 µM)	0.02 (≈ 0.0501 µM)	0.3 (≈ 0.751 µM)	MIC [8]: 0.39 pug ml-1
CN[C@H](CC(C)C)C(=O)N[C@H]1C(=O)N[C@@H](CC(N)=O)C(=O)N[C@H]2C(=O)N[C@H]3C(=O)N[C@H](C(=O)N[C@H](C(=O)O)c4cc(O)cc(O)c4-c4cc3ccc4O)[C@H](O)c3ccc(c(Cl)c3)Oc3cc2cc(c3O[C@@H]2O[C@H](CO)[C@@H](O)[C@H](O)[C@H]2O[C@H]2C[C@](C)(N)[C@H](O)[C@H](C)O2)Oc2ccc(cc2Cl)[C@H]1O [VANCOMYCIN]																		MIC [21]: 32 µg/mL (≈ 22.1 µM); MIC [22]: > 128 µg/mL
Cc1c(F)c(N2CCC(N)C2)cc2c(C3CC3)cc(C(=O)O)c(=O)n12 (configuration not stated)			0.39 (≈ 1.13 µM)	0.2 (≈ 0.579 µM)	0.1 (≈ 0.29 µM)	12.5 (≈ 36.2 µM)	1.56 (≈ 4.52 µM)	100 (≈ 290 µM)	50 (≈ 145 µM)	0.78 (≈ 2.26 µM)	1.56 (≈ 4.52 µM)	6.2 (≈ 18 µM)			6.2 (≈ 18 µM)	3.1 (≈ 8.98 µM)	10 (≈ 29 µM)	
O=C(O)c1cc(-c2ccc(F)cc2F)c2nc(N3CCC(O)C3)c(F)cn2c1=O (configuration not stated)			0.39 (≈ 0.962 µM)	0.1 (≈ 0.247 µM)	0.05 (≈ 0.123 µM)	6.2 (≈ 15.3 µM)	0.78 (≈ 1.92 µM)	> 100	100 (≈ 247 µM)	0.05 (≈ 0.123 µM)	0.05 (≈ 0.123 µM)	6.2 (≈ 15.3 µM)			0.78 (≈ 1.92 µM)	0.78 (≈ 1.92 µM)	0.5 (≈ 1.23 µM)	
NC1CCN(c2nc3c(C4CC4)cc(C(=O)O)c(=O)n3cc2F)C1 (configuration not stated)	4.7	1	0.02 (≈ 0.0602 µM)	0.02 (≈ 0.0602 µM)	0.02 (≈ 0.0602 µM)	1.56 (≈ 4.69 µM)	0.39 (≈ 1.17 µM)	25 (≈ 75.2 µM)	25 (≈ 75.2 µM)	0.2 (≈ 0.602 µM)	0.2 (≈ 0.602 µM)	3.1 (≈ 9.33 µM)	> 12	> 8	1.56 (≈ 4.69 µM)	1.56 (≈ 4.69 µM)	0.15 (≈ 0.451 µM)	

More lines, main results first:

ED50 [1] [mg/kg]	ED50 [2] [mg/kg]	MIC [3] [µg/mL]	MIC [4] [µg/mL]	MIC [5] [µg/mL]	MIC [7] [µg/mL]	MIC [8, 23] [µg/mL]	MIC [9] [µg/mL]	MIC [10] [µg/mL]	MIC [11] [µg/mL]	MIC [12] [µg/mL]	MIC [13] [µg/mL]	ED50 [14] [mg/kg]	ED50 [15] [mg/kg]	MIC [16] [µg/mL]	MIC [18] [µg/mL]	Structure (SMILES)	CC50 [20] [µg/mL]	also measured
> 10	1.4	0.02 (≈ 0.056 µM)	0.01 (≈ 0.028 µM)	0.01 (≈ 0.028 µM)	0.78 (≈ 2.18 µM)	0.2 (≈ 0.56 µM)	6.2 (≈ 17.3 µM)	1.56 (≈ 4.37 µM)	0.02 (≈ 0.056 µM)	0.02 (≈ 0.056 µM)	0.1 (≈ 0.28 µM)	14.6	4.1	0.1 (≈ 0.28 µM)	0.1 (≈ 0.28 µM)	Cc1c(N2C[C@@H]3[C@@H](N)[C@@H]3C2)c(F)cn2c(=O)c(C(=O)O)cc(C3CC3)c12	0.3 (≈ 0.839 µM)	ED50 [6]: 18 mg/kg; ED50 [19]: 6.7 mg/kg; ED50 [17]: > 50 mg/kg
3.3	1	0.05 (≈ 0.13 µM)	0.05 (≈ 0.13 µM)	0.01 (≈ 0.0259 µM)	0.78 (≈ 2.02 µM)			0.78 (≈ 2.02 µM)	0.01 (≈ 0.0259 µM)	0.02 (≈ 0.0519 µM)	0.05 (≈ 0.13 µM)	3.1	0.9	0.1 (≈ 0.259 µM)		Cc1c(N2C[C@@H]3CCCN[C@@H]3C2)c(F)cn2c(=O)c(C(=O)O)cc(C3CC3)c12 (stereo in doubt; 45n)	0.3 (≈ 0.778 µM)	ED50 [17]: 36.4 mg/kg
		0.02 (≈ 0.0536 µM)	0.01 (≈ 0.0268 µM)	0.01 (≈ 0.0268 µM)	0.39 (≈ 1.04 µM)	0.2 (≈ 0.536 µM)	3.1 (≈ 8.3 µM)	0.2 (≈ 0.536 µM)	0.002 (≈ 0.00536 µM)	0.002 (≈ 0.00536 µM)	0.005 (≈ 0.0134 µM)	1.2	0.3	0.01 (≈ 0.0268 µM)	< 0.001	Cc1c(N2CC[C@H]([C@@H](C)N)C2)c(F)cn2c(=O)c(C(=O)O)cc(C3CC3)c12	0.6 (≈ 1.61 µM)	ED50 [6]: > 8 mg/kg
		0.2 (≈ 0.503 µM)	0.01 (≈ 0.0252 µM)	0.05 (≈ 0.126 µM)	0.39 (≈ 0.981 µM)	0.39 (≈ 0.981 µM)	12.5 (≈ 31.5 µM)	0.78 (≈ 1.96 µM)	0.01 (≈ 0.0252 µM)	0.01 (≈ 0.0252 µM)	0.2 (≈ 0.503 µM)			0.05 (≈ 0.126 µM)	0.05 (≈ 0.126 µM)	Cc1c(N2CCC(n3ccnn3)C2)c(F)cn2c(=O)c(C(=O)O)cc(C3CC3)c12 (configuration not stated)	0.07 (≈ 0.176 µM)	
